# Reference: ChEMBL document CHEMBL5321227, “Lysosome-targeting phenalenones as efficient type I/II photosensitizers for anticancer photodynamic therapy” (Eur J Med Chem, 2023)
# The source made the active and inactive calls. The rule behind the calls is not given here.
# Legend:
# 4T1 [1] = test: Anticancer activity against mouse 4T1 cells assessed as reduction in cell viability at 0.01 to 10 uM incubated for 24 hrs by CCK-8 assay; format: functional, cell-based; settings: dose 0.01-10 µM
# 4T1 [2] = test: Anticancer activity against mouse 4T1 cells assessed as fold increase in cleaved caspase-3 protein expression at 1 uM preincubated for 2 hrs followed by photoirradiation with 500 to 700nm and 12 J/cm^2 LED light and measured after 24 hrs by Western blot analysis relative to control; format: functional; settings: time 26 hrs
# [3] = Toxicity in BALB/c mouse xenografted with mouse 4T1 cells assessed as tissue destruction with large spaces in lung at 5 mg/kg,IT(Intratumoral) for 14 days followed by photoirradiation with 500 to 700nm light (0.5 W) for 6 hrs by Hematoxylin and Eosin staining based microscopy; format: organism-based; settings: in vivo, other, 342 h, time 14.25 day
# [4] = Toxicity in BALB/c mouse xenografted with mouse 4T1 cells assessed as histopathological lesion in kidney at 5 mg/kg,IT(Intratumoral) for 14 days by Hematoxylin and Eosin staining based microscopy; format: organism-based; settings: in vivo, other, 336 h, time 14 day
# [5] = Drug uptake in kidney of BALB/c mouse xenografted with mouse 4T1 cells at 5 mg/kg,IT(Intratumoral) and measured after 6 hrs by fluorescence imaging analysis; format: ADME, organism-based; settings: in vivo, other
# [6] = Drug metabolism in human MDA-MB-231 cells assessed as increase in SR expression at 5 uM incubated for 2 hrs by flow cytometry analysis; format: ADME, cell-based; settings: mda-mb-231, 2 h
# [7] = Toxicity in BALB/c mouse xenografted with mouse 4T1 cells assessed as histopathological lesion in heart at 5 mg/kg,IT(Intratumoral) for 14 days by Hematoxylin and Eosin staining based microscopy; format: organism-based; settings: in vivo, other, 336 h, time 14 day
# [8] = Drug uptake BALB/c mouse xenografted with mouse 4T1 cells assessed as maximum fluorescence intensity in tumor at 5 mg/kg,IT(Intratumoral) and measured at 6 hrs by fluorescence imaging analysis; format: ADME, organism-based, Neoplasm; settings: in vivo, other
# 4T1 [9] = test: Anticancer activity against mouse 4T1 cells assessed as reduction in cell viability preincubated for 2 hrs followed by photoirradiation with 500 to 700nm and 12 J/cm^2 LED light for 24 hrs by CCK-8 assay; format: functional, cell-based; settings: 4T1, light or radiation study
# MDA-MB-231 [10] = test: Anticancer activity against human MDA-MB-231 cells assessed as number of dead cells at 2.5 uM incubated for 12 hrs by calcein-AM and propidium iodide staining based flow cytometry; format: functional, cell-based
# [11] = Drug metabolism in carboxylesterase (unknown origin) assessed as formation of active photosensitizer 6-amino-5-iodo-1H-phenalen-1-one by measuring increase in fluorescence at 610nM at 10 uM under by fluorescence assay; format: ADME; settings: human
# 4T1 [12] = test: Antitumor activity against mouse 4T1 cells xenografted in BALB/c mouse assessed as tumor growth inhibition at 5 mg/kg,IT(Intratumoral) for 14 days relative to control; format: functional, organism-based; settings: time 14.0 day
# [13] = Toxicity in BALB/c mouse xenografted with mouse 4T1 cells assessed as tissue destruction with large spaces in spleen at 5 mg/kg,IT(Intratumoral) for 14 days followed by photoirradiation with 500 to 700nm light (0.5 W) for 6 hrs by Hematoxylin and Eosin staining based microscopy; format: organism-based; settings: in vivo, other, 342 h, time 14.25 day
# [14] = Drug uptake BALB/c mouse xenografted with mouse 4T1 cells assessed as increase in fluorescence signal in tumor at 5 mg/kg,IT(Intratumoral) and measured for 1 to 6 hrs by fluorescence imaging analysis; format: ADME, organism-based, Neoplasm; settings: in vivo, other, time 1-6 hrs
# [15] = Stability of compound in various pH; format: physicochemical
# [16] = Toxicity in BALB/c mouse xenografted with mouse 4T1 cells assessed as histopathological lesion in lung at 5 mg/kg,IT(Intratumoral) for 14 days by Hematoxylin and Eosin staining based microscopy; format: organism-based; settings: in vivo, other, 336 h, time 14 day
# [17] = Drug uptake in tumor of BALB/c mouse xenografted with mouse 4T1 cells at 5 mg/kg,IT(Intratumoral) and measured for 6 to 72 hrs by fluorescence imaging analysis; format: ADME, organism-based, Neoplasm; settings: in vivo, other, time 6-72 hrs
# [18] = Photostability of compound in EtOH assessed as compound decomposition at 50 uM incubated for 5 to 20 mins under photoirradiation with 550nm and 10 J/cm^2 LED light by UV-visible spectroscopic analysis; format: physicochemical; settings: time 5-20 min
# [19] = Toxicity in BALB/c mouse xenografted with mouse 4T1 cells assessed as tissue destruction with large spaces in kidney at 5 mg/kg,IT(Intratumoral) for 14 days followed by photoirradiation with 500 to 700nm light (0.5 W) for 6 hrs by Hematoxylin and Eosin staining based microscopy; format: organism-based; settings: in vivo, other, 342 h, time 14.25 day
# [20] = Toxicity in BALB/c mouse xenografted with mouse 4T1 cells assessed as body weight change at 5 mg/kg,IT(Intratumoral) for 14 days followed by photoirradiation with 500 to 700nm light (0.5 W) for 6 hrs; format: organism-based; settings: in vivo, other, 342 h, time 14.25 day
# MDA-MB-231 [21] = test: Anticancer activity against human MDA-MB-231 cells assessed as reduction in cell viability at 0.01 to 10 uM incubated for 24 hrs by CCK-8 assay; format: functional, cell-based; settings: dose 0.01-10 µM
# [22] = Toxicity in BALB/c mouse xenografted with mouse 4T1 cells assessed as tissue destruction with large spaces in liver at 5 mg/kg,IT(Intratumoral) for 14 days followed by photoirradiation with 500 to 700nm light (0.5 W) for 6 hrs by Hematoxylin and Eosin staining based microscopy; format: organism-based; settings: in vivo, other, 342 h, time 14.25 day
# [23] = Drug metabolism in human MDA-MB-231 cells assessed as increase in carboxylesterase mediated SR release at 5 uM incubated for 2 hrs by confocal laser scanning microscopy; format: ADME, cell-based; settings: mda-mb-231, 2 h
# [24] = Stability of compound in gamma-glutamyl transpeptidase at 10 uM incubated for 30 mins by fluorescence assay; format: physicochemical; settings: 0.5 h
# [25] = Toxicity in BALB/c mouse xenografted with mouse 4T1 cells assessed as tissue destruction with large spaces in tumor at 5 mg/kg,IT(Intratumoral) for 14 days followed by photoirradiation with 500 to 700nm light (0.5 W) for 6 hrs by Hematoxylin and Eosin staining based microscopy; format: organism-based; settings: in vivo, other, 342 h, time 14.25 day
# [26] = Drug uptake in tumor BALB/c mouse xenografted with mouse 4T1 cells at 5 mg/kg,IT(Intratumoral) and measured after 6 hrs by fluorescence imaging analysis; format: ADME, organism-based, Neoplasm; settings: in vivo, other
# [27] = Stability of compound in GSH at 10 uM incubated for 30 mins by fluorescence assay; format: physicochemical; settings: 0.5 h
# [28] = Drug uptake in liver of BALB/c mouse xenografted with mouse 4T1 cells at 5 mg/kg,IT(Intratumoral) and measured after 6 hrs by fluorescence imaging analysis; format: ADME, organism-based; settings: in vivo, other
# [29] = Drug uptake in spleen of BALB/c mouse xenografted with mouse 4T1 cells at 5 mg/kg,IT(Intratumoral) and measured after 6 hrs by fluorescence imaging analysis; format: ADME, organism-based; settings: in vivo, other
# [30] = Drug uptake BALB/c mouse xenografted with mouse 4T1 cells assessed as increase in fluorescence signal in tumor at 5 mg/kg,IT(Intratumoral) and measured for 6 to 24 hrs by fluorescence imaging analysis; format: ADME, organism-based, Neoplasm; settings: in vivo, other, time 6-24 hrs
# MDA-MB-231 [31] = test: Anticancer activity against human MDA-MB-231 cells assessed as number of dead cells at 2.5 uM preincubated for 12 hrs followed by photoirradiation with 500 to 700nm and 12 J/cm^2 LED light for 10 mins by calcein-AM and propidium iodide staining based flow cytometry; format: functional, cell-based; settings: time 12.2 hrs
structure (smiles),measurement,setting,value
O=C(CCl)Nc1c(I)cc2c3c(cccc13)C(=O)C=C2,Activity,4T1 [1],Active
same,fold change (FC),4T1 [2],3.45
same,Activity,[3],Toxic
same,Activity,[4],Non-Toxic
same,Drug uptake,[5],Active
same,Drug metabolism,[6],Metabolite_Detected
same,Activity,[7],Non-Toxic
same,Drug uptake,[8],Active
same,IC50,4T1 [9],1310 nM
same,Activity,MDA-MB-231 [10],inactive
same,Drug metabolism,[11],Metabolite_Detected
same,Activity,4T1 [12],Active
same,Activity,[13],Toxic
same,Drug uptake,[14],Active
same,Stability,[15],Stable
same,Activity,[16],Non-Toxic
same,Drug uptake,[17],Not Active
same,Stability,[18],Stable
same,Activity,[19],Toxic
same,Activity,[20],Toxic
same,Activity,MDA-MB-231 [21],Active
same,Activity,[22],Toxic
same,Drug metabolism,[23],Metabolite_Detected
same,Stability,[24],Stable
same,Activity,[25],Toxic
same,Drug uptake,[26],Active
same,Stability,[27],Stable
same,Drug uptake,[28],Active
same,Drug uptake,[29],Not Active
same,Drug uptake,[30],Not Active
same,Activity,MDA-MB-231 [31],Active
